Laboratory results reported in patent publication US9776972B2, “Pyrazole derivatives as arginine methyltransferase inhibitors and uses thereof” (priority 2013, dated 2017).
Like-named read-outs stand apart in the source and are kept apart here.

Key:
human PRMT6 = molecular target: T1, human PRMT6 (Homo sapiens, UniProt Q96LA8); assay: PRMT6 Biochemical Assay (3H-SAM Flashplate, peptide substrate); conditions: Biochemical IC50 PRMT6, single experiment or average of multiple experiments
T1 construct: Flag-PRMT6-His; made in house; host or cells: HEK 293F cells (BacMam baculovirus)
Procedure, shortened: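 Flag-PRMT6-His, expressed in mammalian cells from a BacMam vector, was preincubated with compound for 30 min at room temperature in Bicine pH 7.6 buffer with TCEP, BSG and Tween 20. Reactions were started with ³H-SAM and a biotinylated histone H4 36-50 peptide, then stopped with cold SAM (400 uM final). Labeled peptide was captured on streptavidin Flashplates, counted, and fitted to a 3- or 4-parameter curve.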

[1] = test system: mono-methyl arginine in RKO cells; assay: RKO Methylation Assay, In Cell Western (ICW) for mono-methyl arginine and DNA content; format: cell-based; conditions: Homo sapiens, RKO, 72 h
Procedure, shortened: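 RKO cells treated with compound for 72 hours at 37 °C, then methanol-fixed and stained overnight at 4 °C with anti-mono-methyl arginine antibody, plus DRAQ5 for DNA. Signal ratio from 700 and 800 nm infrared scans normalized to DMSO (minimum) and 20 μM reference compound (maximum); EC30 from triplicate curves.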

[2] = RKO cells, 72 hours, mono-methyl arginine, percent activation, single experiment or average of multiple experiments, read-out: EC30 (In Cell Western data, Numerical)

T1 sequence (Q96LA8 with tags, fused parts or gaps): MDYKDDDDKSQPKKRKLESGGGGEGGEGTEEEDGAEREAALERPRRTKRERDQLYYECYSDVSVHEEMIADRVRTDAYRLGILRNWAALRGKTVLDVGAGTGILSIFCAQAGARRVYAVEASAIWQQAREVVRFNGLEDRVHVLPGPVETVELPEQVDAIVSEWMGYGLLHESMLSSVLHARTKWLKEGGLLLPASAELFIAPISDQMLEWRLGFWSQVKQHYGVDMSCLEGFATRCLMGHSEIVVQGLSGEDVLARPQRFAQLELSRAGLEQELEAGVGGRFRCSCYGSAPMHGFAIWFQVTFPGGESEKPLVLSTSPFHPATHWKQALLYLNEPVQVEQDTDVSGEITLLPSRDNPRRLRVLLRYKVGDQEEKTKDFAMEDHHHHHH

SMILES | IC50 (human PRMT6) [nM] | EC30 [1, 2] [µM] | EC30 ([1]; read-out: EC30 (In Cell Western data, Numerical, μM)) [µM]
CNCCN(C)Cc1c[nH]nc1-c1ccc(Oc2ccccc2)c(C#N)c1 [Compound 221] | 6.72 | 0.413 | 
CN(CCN)Cc1c(-c2ccc(C#N)cc2)ncn1C [Compound 222] | 1160 | > 20 | 
CN(CCN)Cc1c[nH]nc1-c1ccc(Oc2ccccc2)c(F)c1 [Compound 224, N^1-((3-(3-fluoro-4-phenoxyphenyl)-1H-pyrazol-4-yl)methyl)-N^1-methylethane-1,2-diamine] | 1.98 |  | 0.27
CN(CCN)Cc1c[nH]nc1-c1ccc(Oc2ccc(F)cc2)cc1 [Compound 225, N^1-((3-(4-(4-fluorophenoxy)phenyl)-1H-pyrazol-4-yl)methyl)-N^1-methylethane-1,2-diamine] | 1.33 | 0.688 | 
CN(CCN)Cc1c[nH]nc1-c1ccc(Oc2ccccc2)c(C(=O)N(C)C)c1 [Compound 226] | 13.8 | > 20 | 
CNC(=O)c1cc(-c2n[nH]cc2CN(C)CCN)ccc1Oc1ccccc1 [Compound 227] | 11.5 | 15 | 
CNCCN(C)Cc1c[nH]nc1-c1ccc(OCCCOC)c(Cl)c1 [Compound 228] | 8.22 | 0.279 | 
